Measured values reported in patent publication US6710078B2, “5-Substituted-3(2H)-furanones useful for inhibition of farnesyl-protein transferase” (Wyeth Holdings Corporation, priority 2001, dated 2004).

Key:
FPTase [1] = target: T1, FPTase (Homo sapiens, UniProt P49354+P49356); assay: in vitro FTase Inhibition Assay, K-Ras as substrate for farnesylation; type: biochemical; details: K-Ras used as substrate for farnesylation
Description: (§1) Enzyme test procedure: FPTase inhibition in vitro assay was performed according to James, G. L., Brown, M. S., and Goldstein, J. L., Methods in Enzymology, 1995, 255, 38-46; and Garcia, M. A., et al., J. Biol. Chem., 1993, 268,18415-18420.
(§2) Materials—Purified FPTase (Moomaw, J. F. and Casey, P. J., J. Biol. Chem., 1992, 267,17438-17443), purified His6-Ras, inhibitor compounds at 10 mg/ml or 10 mM in 100% DMSO, ^3H-FPP (50,000 dpm/pmol) Amersham, TCA/SDS (6%/2%), TCA (6%), Glass fiber filters ([…]), vacuum manifold or 96 well filtration plates.
(§3) Methods—1. Dilute FPTase inhibitors from stock solutions to 2.5× in 2.5% DMSO, 10 mM DTT, 0.5% octyl-B-glucoside. 2. Solution #1 is added to FPTase reaction in a volume of […]. 3. Standard reaction mix, […], contains 50 mM Tris (7.5),[…], 3 mM MgCl2, 20 mM KCl, 5 mM DTT, 0.2% octyl-B-glucoside, 1% DMSO, […], 10 ng FPTase, and various concentrations of FPTase inhibitors. 4. Incubate for 30-90 min at 25° C. 5. Stop reactions with TCA/SDS (6%/2%), hold at 4° C. for 45-60 min. 6. Filter by manifold or 96 well plate, wash filter 3-5× with TCA (6%). 7. Add scintillant to filters, measure ^3H-FPP incorporation into Ras protein.
(§4) Analysis of Results—Percent inhibition by test compounds is determined by the following:
(§5) (cpm from precipitated Ras with test compounds)−(background cpm)×100=% inhibition.
(§6) (cpm from precipitated Ras without test compounds)−(background cpm)

FPTase [2] = target: T1, FPTase; assay: in vitro FTase Inhibition Assay, H-Ras as substrate for farnesylation; type: biochemical; details: H-Ras used as substrate for farnesylation
Description: as §1, §2, §3, §4, §5, §6

Row | Structure (SMILES) | IC50 (FPTase [1]) [µM] | IC50 (FPTase [2]) [µM]
1 | CC1(c2ccccc2)OC(CC(SC[C@@H](O)[C@H](O)CS)c2ccsc2)=CC1=O (relative stereo) [Example 1, 5-(2-{[(2S*,3S*)-2,3-Dihydroxy-4-mercaptobutyl]thio}-2-thien-3-ylethyl)-2-methyl-2-phenylfuran-3(2H)-one] | 0.1 | 0.06
2 | CC1(c2ccccc2)OC(CC(SC[C@H](O)[C@H](O)CS)c2ccsc2)=CC1=O (relative stereo) [Example 2, 5-(2-[[(2R*,3S*)-2,3-Dihydroxy-4-mercaptobutyl]thio]-2-thien-3-ylethyl)-2methyl-2-phenylfuran-3(2H)-one] |  | 0.19
3 | CC1(c2ccccc2)OC(CC(SC[C@@H](O)[C@H](O)CS)c2ccccc2[N+](=O)[O-])=CC1=O (relative stereo) [Example 7, 5-[2-{[(2S*,3S*)-2,3-Dihydroxy-4-mercaptobutyl]thio}-2-(2-nitrophenyl)ethyl]-2-methyl-2-phenylfuran-3(2H)-one] | 0.09 | 0.32
4 | CC1(c2ccccc2)OC(CC(SC[C@H](O)[C@@H](O)CS)c2ccsc2)=CC1=O (stereo partly drawn) [Example 3, 5-[2-{[(2R,3R)-2,3-Dihydroxy-4-mercaptobutyl]thio}-2-(3-thienyl)ethyl]-2-methyl-2-phenylfuran-3(2H)-one] |  | 0.18
5 | CC1(c2ccc(F)cc2)OC(CC(SC[C@H](O)[C@@H](O)CS)c2ccsc2)=CC1=O (stereo partly drawn) [Example 6, 5-(2-{[(2R,3R)-2,3-Dihydroxy-4-mercaptobutyl]thio}-2-thien-3-ylethyl)-2-(4-fluorophenyl)-2-methylfuran-3(2H)-one] | 0.14 | 0.12
6 | CC(C1=CC(=O)C(C)(c2ccccc2)O1)C(SCC(O)C(O)CS)c1ccsc1 (stereo not shown) [Example 8, 5-(2-{[(2S*3S*)-2,3-Dihydroxy-4-mercaptobutyl]thio}-1-methyl-2-thien-3-ylethyl)-2-methyl-2-phenylfuran-3(2H)-one] | 0.7 | 0.5
7 | CC1(c2ccccc2)OC(CC(SCCCCS)c2ccsc2)=CC1=O (stereo not shown) [Example 9, 5-[2-[(4-Mercaptobutyl)thio]-2-(3-thienyl)ethyl]-2-methyl-2-phenylfuran-3(2H)-one] | 3.7 | 1.5
8 | CC1(c2ccccc2)OC(CC(SCCCCO)c2ccsc2)=CC1=O (stereo not shown) [Example 10, 5-[2-[(4-Hydroxybutyl)thio]-2-(3-thienyl)ethyl]-2-methyl-2-phenylfuran-3(2H)-one] | > 10 | 5.5
9 | CC1(c2ccccc2)OC(CC(SCCCS)c2ccsc2)=CC1=O (stereo not shown) [Example 11, 5-[2-[(3-Mercaptopropyl)thio]-2-(3-thienyl)ethyl]-2-methyl-2-phenylfuran-3(2H)-one] | 0.15 | 0.06
10 | CC1(c2ccccc2)OC(CC(SCCCCCS)c2ccsc2)=CC1=O (stereo not shown) [Example 12, 5-[2-[(5-Mercaptopentyl)thio]-2-(3-thienyl)ethyl]-2-methyl-2-phenylfuran-3(2H)-one] |  | 8
11 | CC1(c2ccccc2)OC(CC(SCCS)c2ccsc2)=CC1=O (stereo not shown) [Example 13, 5-[2-[(2-Mercaptoethyl)thio]-2-(3-thienyl)ethyl]-2-methyl-2-phenylfuran-3(2H)-one] | 1 | 0.18
12 | CC1(c2ccccc2)OC(CC(SCC(S)CO)c2ccsc2)=CC1=O (stereo not shown) [Example 14, 5-[2-[(3-Hydroxy-2-mercaptopropyl)thio]-2-(3-thienyl)ethyl]-2-methyl-2-phenylfuran-3(2H)-one] | 4.5 | 7.2
13 | CC1(c2ccccc2)OC(CC(SCCCO)c2ccsc2)=CC1=O (stereo not shown) [Example 15, 5-[2-[(3-Hydroxypropyl)thio]-2-(3-thienyl)ethyl]-2-methyl-2-phenylfuran-3(2H)-one] |  | 8.3
14 | CC1(c2ccccc2)OC(CC(SCC(O)CO)c2ccsc2)=CC1=O (stereo not shown) [Example 16, 5-[2-[(2,3-Dihydroxypropyl)thio]-2-(3-thienyl)ethyl]-2-methyl-2-phenylfuran-3(2H)-one] |  | 5
15 | CC1(c2ccccc2)OC(CC(SCCc2cnccn2)c2ccsc2)=CC1=O (stereo not shown) [Example 17, 2-Methyl-2-phenyl-5-[2-[(2-pyrazin-2-ylethyl)thio]-2-(3-thienyl)ethyl]furan-3(2H)-one] | > 10 | > 10
16 | CC1(c2ccccc2)OC(CC(SCCO)c2ccsc2)=CC1=O (stereo not shown) [Example 18] |  | 0.55
17 | CC1(c2ccc(F)cc2)OC(CC(SCCO)c2ccsc2)=CC1=O (stereo not shown) [Example 19, 2-(4-Fluorophenyl)-5-[2-[(2-hydroxyethyl)thio]-2-(3-thienyl)ethyl]-2-methylfuran-3(2H)-one] |  | > 10
18 | CC1(c2ccccc2)OC(CC(SC[C@H](N)C(=O)O)c2ccsc2)=CC1=O (stereo partly drawn) [Example 20, (2R)-2-Amino-3-{[2-(5-methyl-4-oxo-5-phenyl-4,5-dihydrofuran-2-yl)-1-thien-3-ylethyl]thio}propanoic acid] |  | > 10
